Consider 32 compounds from patent US7838674B2, “Tetracyclic lactame derivatives” (Novartis AG, priority 2007, dated 2010).

This assay addresses T1, MAPKAPK2 enzyme (HIS-MK2, Invitrogen PV4019) (Homo sapiens, UniProt P49137).
T1 construct: His; purchased Invitrogen PV4019
The experiment in a line: Alternative MAPKAPK2 assay (Caliper microfluidic mobility shift, HSP27-peptide). Format: biochemical. The note with it: HIS-MK2 0.013 nM, ATP 10 μM, 60 min at 30° C.

pIC50: −log10 of the molar value. Where a name gives a salt, the structure may show the parent alone.

T1 sequence (P49137 whole entry): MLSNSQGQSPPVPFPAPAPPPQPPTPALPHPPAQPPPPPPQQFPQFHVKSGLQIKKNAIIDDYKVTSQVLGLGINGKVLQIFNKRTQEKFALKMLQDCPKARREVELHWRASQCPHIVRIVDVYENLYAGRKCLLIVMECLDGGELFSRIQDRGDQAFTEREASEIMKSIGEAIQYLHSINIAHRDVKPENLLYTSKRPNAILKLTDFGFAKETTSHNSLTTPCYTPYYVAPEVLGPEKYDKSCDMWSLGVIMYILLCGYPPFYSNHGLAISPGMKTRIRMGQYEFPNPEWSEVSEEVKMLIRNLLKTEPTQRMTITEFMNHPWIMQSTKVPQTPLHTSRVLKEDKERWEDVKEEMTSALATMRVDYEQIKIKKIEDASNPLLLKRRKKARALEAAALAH

For `COc1ccc(-c2cc3c(cn2)CCc2c-3[nH]c3c2C(=O)N[C@@H]2CC[C@H]32)cc1` (racemic) [Example 50, (+)-2-(2-Amino-cyclobutyl)-8-(4-methoxy-phenyl)-4,5-dihydro-1H-pyrrolo[2,3-f]isoquinoline-3-carboxylic acid lactam], the pIC50 was 7.68.
Turning to `COc1ccc(-c2cc3c(cn2)CCc2c-3[nH]c3c2C(=O)N[C@@H]2C[C@H]32)cc1` (racemic) [Example 52, (+)-2-(2-Amino-cyclopropyl)-8-(4-methoxy-phenyl)-4,5-dihydro-1H-1,7-diaza-cyclopenta[a]naphthalene-3-carboxylic acid lactam], the pIC50 is 7.46.
With `O=C1NC2CCC2c2[nH]c3c(c21)CCc1cnc(-c2cccc(F)c2)cc1-3` (single isomer, unassigned; (+)) [Example 51, (+)-2-(2-Amino-cyclobutyl)-8-(3-fluoro-phenyl)-4,5-dihydro-1H-pyrrolo[2,3-f]isoquinoline-3-carboxylic acid lactam] the figure was 7.55; with `COc1ccc(-c2cc3c(cn2)CCc2c4c(n(C)c2-3)CC2(CNC2)NC4=O)cc1` [Example 38, 2-(3-Amino-azetidin-3-ylmethyl)-8-(4-methoxy-phenyl)-1-methyl-4,5-dihydro-1H-pyrrolo[2,3-f]isoquinoline-3-carboxylic acid lactam hydrochloride], 7.70.
Consider `COc1ccc(-c2cc3c(cn2)CCc2c-3oc3c2C(=O)NC2(CNC2)C3)cc1` [Example 41, 2-(3-Amino-azetidin-3-ylmethyl)-8-(4-methoxy-phenyl)-4,5-dihydro-furo[2,3-f]isoquinoline-3-carboxylic acid lactam hydrochloride], for which the pIC50 was 7.68.
On to `COc1ccc(-c2cc3c(cn2)CCc2c-3[nH]c3c2C(=O)NCC32CC2)cn1` [Example 54, 2-(1-Aminomethyl-cyclopropyl)-8-(6-methoxy-pyridin-3-yl)-4,5-dihydro-1H-pyrrolo[2,3-f]isoquinoline-3-carboxylic acid lactam], for which the negative-log IC50 (pIC50) was 7.66.
Regarding `COc1cncc(-c2cc3c(cn2)CCc2c-3[nH]c3c2C(=O)NCC32CC2)c1` [Example 55, 2-(1-Aminomethyl-cyclopropyl)-8-(5-methoxy-pyridin-3-yl)-4,5-dihydro-1H-pyrrolo[2,3-f]isoquinoline-3-carboxylic acid lactam], the pIC50 was 7.96.
As for `CCOc1ccc(-c2ncc3c(n2)-c2c(c4c(n2C)CC2(CNC2)NC4=O)CC3)cc1` [Example 59, 2-(3-Amino-azetidin-3-ylmethyl)-8-(4-ethoxyphenyl)-1-methyl-4,5-dihydro-1H-1,7,9-triaza-cyclopenta[a]naphthalene-3-carboxylic acid lactam hydrochloride], the pIC50 was 7.89.
Take `N#Cc1ccc(-c2cc3c(cn2)CCc2c-3[nH]c3c2C(=O)NC2(CC2)C3)cc1` [Example 60, 2-(1-Amino-cyclopropylmethyl)-8-(4-cyano-phenyl)-4,5-dihydro-1H-pyrrolo[2,3-f]isoquinoline-3-carboxylic acid lactam]: the pIC50 is 7.12.
Regarding `N#Cc1ccc(-c2cc3c(cn2)CCc2c-3[nH]c3c2C(=O)NC2(CC2)C3)cn1` [Example 63, 2-(1-Amino-cyclopropylmethyl)-8-(6-cyano-pyridin-3-yl)-4,5-dihydro-1H-pyrrolo[2,3-f]isoquinoline-3-carboxylic acid lactam], the pIC50 is 7.05.
Turning to `O=C1NC2(CC2)Cc2[nH]c3c(c21)CCc1cnc(-c2ccc(CN4CCCCC4)cc2)cc1-3` [Example 65, 2-(1-Amino-cyclopropylmethyl)-8-(4-piperidin-1-ylmethyl-phenyl)-4,5-dihydro-1H-pyrrolo[2,3-f]isoquinoline-3-carboxylic acid lactam], the pIC50 is 7.34.
Consider `O=C1NC2(CC2)Cc2[nH]c3c(c21)CCc1cnc(-c2ccc4c(c2)OCCO4)cc1-3` [Example 66, 2-(1-Amino-cyclopropylmethyl)-8-(2,3-dihydro-benzo[1,4]dioxin-6-yl)-4,5-dihydro-1H-pyrrolo[2,3-f]isoquinoline-3-carboxylic acid lactam], for which the negative-log IC50 (pIC50) is 7.22.
Consider `CN(C)c1ccc(-c2cc3c(cn2)CCc2c-3[nH]c3c2C(=O)NC2(CC2)C3)cn1` [Example 68, 2-(1-Amino-cyclopropylmethyl)-8-6-dimethylamino-pyridin-3-yl-4,5-dihydro-1H-pyrrolo[2,3-f]isoquinoline-3-carboxylic acid lactam], for which the negative logarithm of the IC50 (pIC50) was 7.31.
`Cc1ccc(-c2cc3c(cn2)CCc2c-3[nH]c3c2C(=O)NC2(CC2)C3)cn1` [Example 69, 2-(1-Amino-cyclopropylmethyl)-8-(6-methyl-pyridin-3-yl)-4,5-dihydro-1H-pyrrolo[2,3-f]isoquinoline-3-carboxylic acid lactam]: the pIC50 is 7.46.
With `C#Cc1cc(-c2cc3c(cn2)CCc2c-3[nH]c3c2C(=O)NC2(CC2)C3)ccc1OC` [Example 75, 2-(1-Amino-cyclopropylmethyl)-8-(3-ethynyl-4-methoxy-phenyl)-4,5-dihydro-1H-pyrrolo[2,3-f]isoquinoline-3-carboxylic acid lactam], the negative-log IC50 (pIC50) is 7.01.
As for `CC(C)(O)CCc1ccc(-c2cc3c(cn2)CCc2c-3[nH]c3c2C(=O)NC2(CC2)C3)cc1` [Example 77, 2-(1-Amino-cyclopropylmethyl)-8-[4-(3-hydroxy-3-methyl-butyl)-phenyl]-4,5-dihydro-1H-pyrrolo[2,3-f]isoquinoline-3-carboxylic acid lactam], the figure is 7.07; as for `CC(C)(N)CCc1ccc(-c2cc3c(cn2)CCc2c-3[nH]c3c2C(=O)NC2(CC2)C3)cc1` [Example 78, 2-(1-Amino-cyclopropylmethyl)-8-[4-(3-amino-3-methyl-butyl)-phenyl]-4,5-dihydro-1H-pyrrolo[2,3-f]isoquinoline-3-carboxylic acid lactam], 7.74.
`CC(C)(N)C#Cc1ccc(-c2cc3c(cn2)CCc2c-3[nH]c3c2C(=O)NC2(CC2)C3)cc1` [Example 82, 2-(1-Amino-cyclopropylmethyl)-8-[4-(3-amino-3-methyl-but-1-ynyl)-phenyl]-4,5-dihydro-1H-pyrrolo[2,3-f]isoquinoline-3-carboxylic acid lactam]: the pIC50 is 7.62.
Take `Nc1ccc(-c2cc3c(cn2)CCc2c-3[nH]c3c2C(=O)NC2(CCC2)C3)cn1` [Example 101, 2-(1-Amino-cyclobutylmethyl)-8-(6-amino-pyridin-3-yl)-4,5-dihydro-1H-pyrrolo[2,3-f]isoquinoline-3-carboxylic acid lactam]: the negative-log IC50 (pIC50) is 7.01.
Take `Cc1cncc(-c2cc3c(cn2)CCc2c-3[nH]c3c2C(=O)NC2(CCC2)C3)c1` [Example 102, 2-(1-Amino-cyclobutylmethyl)-8-(5-methyl-pyridin-3-yl)-4,5-dihydro-1H-pyrrolo[2,3-f]isoquinoline-3-carboxylic acid lactam]: the pIC50 was 7.21.
With `O=C1NC2(CCC2)Cc2[nH]c3c(c21)CCc1cnc(-c2cccnc2)cc1-3` [Example 104, 2-(1-Amino-cyclobutylmethyl)-8-pyridin-3-yl-4,5-dihydro-1H-pyrrolo[2,3-f]isoquinoline-3-carboxylic acid lactam] the figure was 7.17.
Take `Cc1ccc(-c2cc3c(cn2)CCc2c-3[nH]c3c2C(=O)NCC32CC2)cn1` [Example 111, 2-(1-Aminomethyl-cyclopropyl)-8-(6-methyl-pyridin-3-yl)-4,5-dihydro-1H-pyrrolo[2,3-f]isoquinoline-3-carboxylic acid lactam]: the pIC50 is 8.30.
As for `O=C1NCC2(CC2)c2[nH]c3c(c21)CCc1cnc(-c2cncc(F)c2)cc1-3` [Example 112, 2-(1-Aminomethyl-cyclopropyl)-8-(5-fluoro-pyridin-3-yl)-4,5-dihydro-1H-pyrrolo[2,3-f]isoquinoline-3-carboxylic acid lactam], the figure is 8.05; as for `N#Cc1cncc(-c2cc3c(cn2)CCc2c-3[nH]c3c2C(=O)NCC32CC2)c1` [Example 113, 2-(1-Aminomethyl-cyclopropyl)-8-(5-cyano-pyridin-3-yl)-4,5-dihydro-1H-pyrrolo[2,3-f]isoquinoline-3-carboxylic acid lactam], 7.64.
Turning to `O=C1NCC2(CC2)c2[nH]c3c(c21)CCc1cnc(-c2ccc4c(c2)OCCO4)cc1-3` [Example 114], the negative-log IC50 (pIC50) was 7.39.
As for `N#Cc1cc(-c2cc3c(cn2)CCc2c-3[nH]c3c2C(=O)NCC32CC2)ccc1F` [Example 115], the figure is 7.44.
With `CN(C)c1ccc(-c2cc3c(cn2)CCc2c-3[nH]c3c2C(=O)NCC32CC2)cn1` [Example 117], the pIC50 was 7.72.
Consider `CC(C)(N)CCc1ccc(-c2cc3c(cn2)CCc2c-3[nH]c3c2C(=O)NCC32CC2)cc1` [Example 118, 8-[4-(3-Amino-3-methyl-butyl)-phenyl]-2-(1-aminomethyl-cyclopropyl)-4,5-dihydro-1H-pyrrolo[2,3-f]isoquinoline-3-carboxylic acid lactam], for which the pIC50 was 7.80.
For the compound `CC(C)(O)C#Cc1ccc(-c2cc3c(cn2)CCc2c-3[nH]c3c2C(=O)NCC32CC2)cc1` [Example 119], the pIC50 is 7.05.
Regarding `C#Cc1cc(-c2cc3c(cn2)CCc2c-3[nH]c3c2C(=O)NCC32CC2)ccc1OC` [Example 120, 2-(1-Aminomethyl-cyclopropyl)-8-(3-ethynyl-4-methoxy-phenyl)-4,5-dihydro-1H-pyrrolo[2,3-f]isoquinoline-3-carboxylic acid lactam], the negative-log IC50 (pIC50) was 7.40.
With `O=C1NCC2(CC2)c2[nH]c3c(c21)CCc1cnc(-c2cncnc2)cc1-3` [Example 123, 2-(1-Aminomethyl-cyclopropyl)-8-pyrimidin-5-yl-4,5-dihydro-1H-pyrrolo[2,3f]isoquinoline-3-carboxylic acid lactam] the figure was 7.52.
Turning to `O=C1NCC2(CC2)c2[nH]c3c(c21)CCc1cnc(-c2ccncc2)cc1-3` [Example 124, 2-(1-Aminomethyl-cyclopropyl)-8-pyridin-4-yl-4,5-dihydro-1H-pyrrolo[2,3-f]isoquinoline-3-carboxylic acid lactam], the pIC50 is 7.26.

As a reminder, the pIC50 is the IC50 on a negative log10 scale, so that one unit is a factor of ten.
